Results reported in patent US5210193A, “Piperazine derivatives” (American Cyanamid Company, priority 1990, dated 1993).
In brackets after ≈: the same amount, converted by molar mass.

Tests used:
[1] = tested on: Escherichia coli ATCC 25922; assay: in vitro antibacterial MIC, agar plate dilution; assay type: cell-based; conditions: Escherichia coli, ATCC25922, 18 h, 35° C., read-out: MIC
Procedure: (§1) The in vitro antimicrobial spectrum of the compounds of ths invention were determined by the agar plate dilution method with Mueller-Hinton agar and an inoculum of each test organism of approximately 10^4 colony forming units delivered by the Steers replicating device. The minimal inhibitory concentration (MIC) in mcg/ml is defined as the lowest concentration of test compound that inhibited visible growth after 18 hours incubation at 35° C. Results are given in Table I, with the test compounds identified by the number of their hereinafter described examples.

[2] = tested on: Morganella morganii VGH 84-11; assay: in vitro antibacterial MIC, agar plate dilution; assay type: cell-based; conditions: VGH8411, 18 hours, 35° C., read-out: MIC
Procedure: as §1

[3] = tested on: Pseudomonas aeruginosa VGH 84-4; assay: in vitro antibacterial MIC, agar plate dilution; assay type: cell-based; conditions: Pseudomonas aeruginosa, VGH844, 18 h, 35° C., read-out: MIC
Procedure: as §1

[4] = tested on: Enterobacter aerogenes VGH 84-36; assay: in vitro antibacterial MIC, agar plate dilution; assay type: cell-based; conditions: Klebsiella aerogenes, VGH8436, 18 hours, 35° C., read-out: MIC
Procedure: as §1

[5] = tested on: Staphylococcus aureus Smith; assay: in vitro antibacterial MIC, agar plate dilution; assay type: cell-based; conditions: Staphylococcus aureus, 18 h, 35° C., read-out: MIC
Procedure: as §1

[6] = tested on: Escherichia coli CMC 84-11; assay: in vitro antibacterial MIC, agar plate dilution; assay type: cell-based; conditions: Escherichia coli, CMC8411, 18 h, 35° C., read-out: MIC
Procedure: as §1

[7] = tested on: Staphylococcus aureus ATCC 25913; assay: in vitro antibacterial MIC, agar plate dilution; assay type: cell-based; conditions: ATCC25913, 18 hours, 35° C.
Procedure: as §1

[8] = tested on: Proteus rettgeri CMC 84-41; assay: in vitro antibacterial MIC, agar plate dilution; assay type: cell-based; conditions: Providencia rettgeri, CMC8441, 18 h, 35° C., read-out: MIC
Procedure: as §1

[9] = tested on: Enterobacter cloacae VGH 84-37; assay: in vitro antibacterial MIC, agar plate dilution; assay type: cell-based; conditions: Enterobacter cloacae, VGH8437, 18 h, 35° C., read-out: MIC
Procedure: as §1

[10] = tested on: Streptococcus faecalis ATTC 29212; assay: in vitro antibacterial MIC, agar plate dilution; assay type: cell-based; conditions: Enterococcus faecalis, ATTC29212, 18 hours, 35° C., read-out: MIC
Procedure: as §1

[11] = tested on: Klebsiella pneumoniae AD; assay: in vitro antibacterial MIC, agar plate dilution; assay type: cell-based; conditions: Klebsiella pneumoniae, 18 h, 35° C., read-out: MIC
Procedure: as §1

[12] = tested on: Klebsiella pneumoniae MOR 84-4; assay: in vitro antibacterial MIC, agar plate dilution; assay type: cell-based; conditions: Klebsiella pneumoniae, MOR844, 18 h, 35° C., read-out: MIC
Procedure: as §1

[13] = tested on: Klebsiella pneumoniae AD; assay: in vivo antibacterial activity, survival of infected mice (Table II); design: species or system Charles River CD-1 mice; conditions: subcutaneous
Procedure: Charles River CD-1 mice were infected with either Klebsiella pneumoniae AD or Staphylococcus aureus Smith. A single subcutaneous dose of the test compound was administered 1/2 hour after infection. […] The results appear in Tables II and III, wherein the representative test compounds are identified by the number of their hereinafter described examples.

| SMILES | MIC [1] | MIC [2] | MIC [3] | MIC [4] | MIC [5] | MIC [6] | MIC [7] | MIC [8] | MIC [9] | MIC [10] | MIC [11] | MIC [12] | Survival Ratio 7 Days After Infection ([13]; 0.25 mg/kg single dose) | Survival Ratio 7 Days After Infection ([13]; 1 mg/kg single dose) | Survival Ratio 7 Days After Infection ([13]; 4 mg/kg single dose) | Survival Ratio 7 Days After Infection ([13]; 16 mg/kg single dose) | Survival Ratio 7 Days After Infection ([13]; 64 mg/kg single dose) |
| --- | --- | --- | --- | --- | --- | --- | --- | --- | --- | --- | --- | --- | --- | --- | --- | --- | --- |
| CCn1cc(C(=O)O)c(=O)c2cc(F)c(N3CCNC(CN4CCN(C)CC4)C3)cc21 (centres unmarked) [Example 4, 1-Ethyl-6-fluoro 1,4-dihydro-7-[3-[(4-methyl-1-piperazinyl)methyl]-1-piperazinyl]-4-oxo-3-quinolinecarboxylic acid] | 8 µg/mL (≈ 18.5 µM) | 4 µg/mL (≈ 9.27 µM) | 64 µg/mL (≈ 148 µM) | 16 µg/mL (≈ 37.1 µM) | 8 µg/mL (≈ 18.5 µM) | 8 µg/mL (≈ 18.5 µM) | 64 µg/mL (≈ 148 µM) | 32 µg/mL (≈ 74.2 µM) | 4 µg/mL (≈ 9.27 µM) | – | 8 µg/mL (≈ 18.5 µM) | 16 µg/mL (≈ 37.1 µM) | 0/5 | 0/5 | 4/5 | 5/5 | 5/5 |
| CCn1cc(C(=O)O)c(=O)c2cc(F)c(N3CCNC(CO)C3)cc21.Cl (centres unmarked) [Example 5, 1-Ethyl-6-fluoro-1,4-dihydro-7[3-(hydroxymethyl)-1-piperazinyl]-4-oxo-3-quinolinecarboxylic acid, hydrochloride] | 2 µg/mL | 0.5 µg/mL | 8 µg/mL | 16 µg/mL | 8 µg/mL | 1 µg/mL | 32 µg/mL | 1 µg/mL | 1 µg/mL | – | 0.5 µg/mL | 2 µg/mL | 0/5 | 0/5 | 0/5 | 0/5 | 5/5 |
| CCn1cc(C(=O)O)c(=O)c2cc(F)c(N3CCNC(c4cc(C)sc4C)C3)cc21 (centres unmarked) [Example 48, 7-[3-(2,5-Dimethyl-3-thienyl)-1-piperazinyl]-1-ethyl-6-fluoro-1,4-dihydro-4-oxo-3-quinolinecarboxylic acid] | 1 µg/mL (≈ 2.33 µM) | 2 µg/mL (≈ 4.66 µM) | 32 µg/mL (≈ 74.5 µM) | 2 µg/mL (≈ 4.66 µM) | 0.25 µg/mL (≈ 0.582 µM) | 1 µg/mL (≈ 2.33 µM) | 0.25 µg/mL (≈ 0.582 µM) | 2 µg/mL (≈ 4.66 µM) | 2 µg/mL (≈ 4.66 µM) | 0.25 µg/mL (≈ 0.582 µM) | 1 µg/mL (≈ 2.33 µM) | 2 µg/mL (≈ 4.66 µM) | – | – | – | – | – |

Continued, in another order:

| MIC [1] | MIC [2] | MIC [3] | MIC [4] | MIC [5] | MIC [6] | MIC [7] | MIC [8] | MIC [9] | MIC [10] | MIC [11] | MIC [12] | SMILES | Survival Ratio 7 Days After Infection ([13]; 0.25 mg/kg single dose) | Survival Ratio 7 Days After Infection ([13]; 1 mg/kg single dose) | Survival Ratio 7 Days After Infection ([13]; 4 mg/kg single dose) | Survival Ratio 7 Days After Infection ([13]; 16 mg/kg single dose) | Survival Ratio 7 Days After Infection ([13]; 64 mg/kg single dose) |
| --- | --- | --- | --- | --- | --- | --- | --- | --- | --- | --- | --- | --- | --- | --- | --- | --- | --- |
| ≤ 0.12 µg/mL | ≤ 0.12 µg/mL | 2 µg/mL (≈ 5.69 µM) | ≤ 0.12 µg/mL | ≤ 0.12 µg/mL | ≤ 0.12 µg/mL | ≤ 0.12 µg/mL | ≤ 0.12 µg/mL | ≤ 0.12 µg/mL | 2 µg/mL (≈ 5.69 µM) | ≤ 0.12 µg/mL | ≤ 0.12 µg/mL | CCn1cc(C(=O)O)c(=O)c2cc(F)c(N3CCNC(CF)C3)cc21 (centres unmarked) [Example 24] | – | – | – | – | – |
| > 256 µg/mL | > 256 µg/mL | > 256 µg/mL | > 256 µg/mL | > 256 µg/mL | > 256 µg/mL | > 256 µg/mL | > 256 µg/mL | > 256 µg/mL | > 256 µg/mL | > 256 µg/mL | > 256 µg/mL | CCn1cc(C(=O)O)c(=O)c2cc(F)c(N3CCNC(c4sc5ccc(Cl)cc5c4C)C3)cc21 (centres unmarked) [Example 20, 7-[3-(5-Chloro-3-methylbenzo[b]thien-2-yl)-1-piperazinyl]-1-ethyl-6-fluoro-1,4-dihydro-4-oxo-3-quinolinecarboxylic acid] | – | – | – | – | – |
| 8 µg/mL (≈ 17 µM) | 8 µg/mL (≈ 17 µM) | > 256 µg/mL | 64 µg/mL (≈ 136 µM) | 0.5 µg/mL (≈ 1.06 µM) | 8 µg/mL (≈ 17 µM) | 1 µg/mL (≈ 2.13 µM) | 8 µg/mL (≈ 17 µM) | 16 µg/mL (≈ 34 µM) | 32 µg/mL (≈ 68 µM) | 8 µg/mL (≈ 17 µM) | 16 µg/mL (≈ 34 µM) | CCn1cc(C(=O)O)c(=O)c2cc(F)c(N3CCNC(c4cc(Cl)sc4Cl)C3)cc21 (centres unmarked) [Example 51] | – | – | – | – | – |
